Consider five molecules from patent US9855255B1, “Substituted naphthyridinyl hydrazines as anti-liver cancer agents” (KING SAUD UNIVERSITY, priority 2017, dated 2018).

Converted amounts (≈) assume the structure as drawn. Where only a bound is given, the exact number is not on record here.

In series [1] the test system is HepG2 (Liver). Description: MTT cell proliferation and viability assay on liver HEPG2 cancer cell line. The format is cell-based. The following applies: Homo sapiens, 48 hours, read-out: IC50 cytotoxic activity. The procedure: In the following examples, human cancer cell line HepG2 (Liver) was grown in DMEM media supplemented with 10% bovine serum, 1× penicillin-streptomycin (Sigma-Aldrich) at 37° C. in a humidified chamber with 5% CO2. 5-Flurourasil (Sigma-Aldrich) was used as the reference drug (standard).
Cells were seeded (1×10^5 cells/well in triplicate) in a 96-well flat-bottom plate (Becton-Dickinson Lab ware) a day before treatment and grown. Stocks of all extracts/compounds (1.0 mg/ml) were made with 5% DMSO (Sigma-Aldrich), and further working solutions (100 μg/ml) were prepared in serum-free culture media. Cells were treated with four different doses (2, 6.2, 12.5, and 25 μg/ml; in triplicate) of the compounds in complete growth media, including reference drug, and further incubated for 48 hours.
On day 2 of treatment, cell proliferation and viability test was performed using TACS MTT Cell Proliferation and Viability Assay Kit (TACS), as per manufacturer's instructions. The relationship between surviving fraction and compound concentration was plotted to obtain the survival curve of cancer cell lines. The response parameter calculated was the IC50 value, which corresponds to the concentration required for 50% inhibition of cell viability.

A short description of series [2]: Effect on biochemical parameters in mice serum. The format is in vivo. The following applies: single i.p. 12 mg/kg, blood after 7 days; for Albumin / Bilirubin / Cholestrol / Creatinine / Globulin / Total Lipids / Triglycerides / Alanine amino transferase ALT / Alkaline phosphatase ALP / Aspartate amino transferase AST: Mean + S.D.; for Alanine amino transferase ALT / Alkaline phosphatase ALP / Aspartate amino transferase AST: 12 mg/kg. The text has this:
Male albino mice, weighing 18-20 g each, were used in a study. The mice were divided into three main groups, as follows. Group 1 is the untreated control group (5 mice); Group 2 is divided into two subgroups (5 mice in each subgroup), treated with either 5-FU (5-Fluorouracil) or DOX (Doxorubicin) as reference anticancer drugs. Group 3 is divided into ten subgroups (5 mice for each subgroup) and treated with the present substituted naphthyridinyl hydrazine compounds. The mice were housed in wide cages and well aerated rooms, and fed standard diets and clean water. Blood collection from the animals was done with heparinized cannula, and the mice were left alive.
For treatment, in Group 1, each mouse was given a single intraperitoneal (i.p.) injection of 0.1 mL DMSO; in Group 2, each mouse was given a single i.p. injection of 0.1 mL containing 12 mg/kg body weight of 5-FU or DOX dissolved in sterile water; and in Group 3, each mouse was given a single intraperitoneal injection of 0.1 mL containing 12 mg/kg body weight of the selected furan derivatives dissolved in 0.01% DMSO. Blood was collected after 7 days from all mouse groups.
The biochemical effects of formula 1 compounds on some liver enzymes in mouse blood serum was studied. Effects on aspartate and alanine aminotransferases (AST and ALT), and alkaline phosphatase (ALP), were examined using a blood auto analyzer, Olympus AV 400, Japan. Moreover, albumin, globulins, creatinine, total lipids, cholesterol, triglycerides, and bilirubin were evaluated, in comparison to treatment using 5-FU or DOX. Statistical analysis of the results was performed using Chi-square values (SPSS computer program).

In series [3] the test system is various human cancer cell lines. The series is described as follows: Single-dose screening against a variety of human cancer cell lines. The format is cell-based. The following applies: leukemia, non-small cell lung, colon, CNS, melanoma, ovarian, renal, prostate, breast cancer cell lines. An excerpt:
FIGS. 5A and 5B are a chart showing results of single-dose screening for various human cancer cell lines treated with compound 6 (a substituted naphthyridinyl hydrazine according to the present invention).

In series [4] the test system is HepG2 cells. Description: Phase contrast microscopy of morphological changes in HepG2 cells. The format is cell-based, human. The following applies: for Morphological changes of HepG2 cells: 10 μg. The procedure:
The cells were seeded in 6-well plates and allowed to adhere at 37° C. in a CO2 incubator. After 24 h, each well was treated with 10 μg compound and incubated for the indicated time. After 24 and 48 hrs, the cells were imaged by phase contrast microscope (Olympus CLX 41) to visualize morphological changes in HepG2 cells.
A. The cells were seeded in 6-well plates and allowed to adhere at 37° C. in CO2 incubator. After 24 h, each well was treated with 10 μg of compound 6 and incubated for the indicated time. After 24 and 48 hrs, the cells were imaged by phase contrast microscope (Olympus CLX 41) to visualize morphological changes in HepG2 cells.
A. Change in HepG2 cells after treatment with compound 6 was studied for morphological variations using the phase contrast microscopy.
Many characteristic features occur in cells undergoing a series of biochemical events during apoptosis. Various morphological changes, such as blebbing, loss of membrane asymmetry, cell shrinkage, nuclear fragmentation, chromatin condensation, and chromosomal DNA fragmentation occur.

Series [5] has as its system HeLa cells. The series is described as follows: Phase contrast microscopy of morphological changes in HeLa cells. In kind it is cell-based. The following applies: after 12 and 24 hrs. The procedure:
B. Similar studies were done with HeLa cells. Cells were seeded in 6-well plates and allowed to adhere at 37° C. in CO2 incubator. After 24 h, each well was treated with 4.6 μM 2,6P-OLA and incubated for the indicated time. After 12 and 24 h, the cells were imaged by phase contrast microscope (Olympus CLX 41) to visualize morphological changes in HeLa cells.
B. Change in LeLa cells after treatment with compound 6 was also studied for morphological variations using the phase contrast microscopy.

Turning to `O=c1[nH]cc(F)c(=O)[nH]1` [Compound 5-FU, 5-Fluorouracil], the IC50 in series [1] was 5 µg/mL (≈ 38.4 µM). Also, in series [2], the A/G ratio was 1.13, the Albumin is on record as 6.49 ± 0.92 mg/d1, the Bilirubin worked out at 0.75 ± 0.10 mg/dL and the Cholestrol came to 105.9 ± 11.7 mg/dL. Also, in series [2], the Creatinine was 0.81 ± 0.06 mg/dL, the Globulin is 5.75 ± 0.8 mg/dL, the “Total Lipids” value was 378.2 ± 31.4 mg/dL and the Triglycerides amounted to 126.5 ± 19.4 mg/dL.

In the case of `COc1cccc2c1C(=O)c1c(O)c3c(c(O)c1C2=O)C[C@@](O)(C(=O)CO)C[C@@H]3O[C@H]1C[C@H](N)[C@H](O)[C@H](C)O1` [Doxorubicin], the IC50 in series [1] was determined as 3.56 µg/mL (≈ 6.55 µM). Further, in series [2], the A/G ratio was found to be 1.078, the Albumin came out at 6.37 ± 0.85 mg/d1, the Bilirubin is 0.81 ± 0.19 mg/dL and the Cholestrol was found to be 109.3 ± 14.2 mg/dL. Further, in series [2], the Creatinine was 0.78 ± 0.04 mg/dL, the Globulin was determined as 5.91 ± 0.63 mg/dL, the “Total Lipids” value came to 21.94 ± 3.4 mg/dL and the Triglycerides worked out at 137.8 ± 17.10 mg/dL. Further, in series [2], the “Alanine amino transferase ALT” value came out at 59.26 ± 12.03 IU/ml, the “Alkaline phosphatase ALP” value is on record as 30.31 ± 5.14 k.k./dl and the “Aspartate amino transferase AST” value was 147.22 IU/ml. For the same molecule, in series [2] (listed as DOX), the “Alanine amino transferase ALT” value was “significantly higher”, the “Alkaline phosphatase ALP” value is on record as “significantly increased” and the “Aspartate amino transferase AST” value is reported as “significantly higher”.

Molecule `Cc1ccc2c(N/N=C/c3ccccc3[N+](=O)[O-])cc(C)nc2n1` [Compound 6, (E)-2-(2-Nitrobenzylidene)-1-(2,7-dimethyl-1,8-naphthyridin-5-yl)hydrazine] came in with a melting point of 255 to 256 °C. Besides, in series [3], the “Cancer cell growth in single-dose screening” value is reported as “significant decreases in cancer cell growth”. Further, the IC50 in series [1] amounted to 0.885 µg/mL (≈ 2.75 µM). In series [4] (24 hours, FIG. 7B), the “Morphological changes of HepG2 cells” value was “onset of apoptotic characteristics”. In addition, in series [4] (48 hours, FIG. 7C), the “Morphological changes of HepG2 cells” value was “blebbing and loss of basal attachment and membrane asymmetry is markedly seen”. For the same molecule, the “Morphological variations of HepG2 cells” value in series [4] (after 24 and 48 hrs, phase contrast microscopy) is on record as “Changes in surface morphology”. Moreover, the “Morphological variations of HeLa cells” value in series [5] is reported as “Changes in surface morphology were observed”. For the same molecule, in series [2], the A/G ratio stood at 1.23, the Albumin is listed as 7.73 ± 0.52 mg/d1, the Bilirubin amounted to 0.76 ± 0.15 mg/dL and the Cholestrol was 93.24 ± 19.53 mg/dL. Besides, in series [2], the Creatinine was 0.71 ± 0.21 mg/dL, the Globulin was 6.25 ± 0.82 mg/dL, the “Total Lipids” value stood at 326.32 ± 19.3 mg/dL and the Triglycerides was found to be 110.54 ± 17.8 mg/dL. In series [2], the “Alanine amino transferase ALT” value is recorded as 46.09 ± 6.13 IU/ml, the “Alkaline phosphatase ALP” value worked out at 21.59 ± 3.42 k.k./dl and the “Aspartate amino transferase AST” value is on record as 112.81 ± 9.88 IU/ml. Moreover, in series [2] (listed as new compound), the “Alanine amino transferase ALT” value is on record as “non-significant (n.s.) or slightly higher”, the “Alkaline phosphatase ALP” value is recorded as “no significant changes” and the “Aspartate amino transferase AST” value is “non-significant (n.s.) or slightly higher”.

With `Cc1ccc2c(N/N=C3\C(=O)Nc4ccc(Cl)cc43)cc(C)nc2n1` [Compound 8c, (3Z)-5-Chloro-3-[2-(2,7-dimethyl-1,8-naphthyridin-4-yl)hydrazinylidene]-1,3-dihydro-2H-indol-2-one], the melting point was more than 300 °C.

With `Cc1ccc2c(N/N=C3\C(=O)Nc4ccccc43)cc(C)nc2n1` [Compound 8b, (3Z)-3-[2-(2,7-Dimethyl-1,8-naphthyridin-4-yl)hydrazinylidene]-1,3-dihydro-2H-indol-2-one], the melting point is more than 300 °C.

One may read the IC50 as the concentration that inhibits the measured activity by half. For orientation: melting point means the temperature of the solid-liquid transition.
